According to US9920010B2, “CXCR7 receptor modulators” (IDORSIA PHARMACEUTICALS LTD, priority 2013, dated 2018):

Biological target: T1, CXCR7 (Homo sapiens, UniProt P25106)
T1 construct: host or cells: CHO-K1 (PathHunter CHO-K1 CXCR7 b-arrestin cell line, stably transfected)
Assay: PathHunter CHO-K1 CXCR7 b-arrestin recruitment assay (CXCR7 agonistic activity)
Assay type: cell-based
Details: PathHunter CHO-K1 CXCR7 b-arrestin cell line
Method in brief: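 Stable CHO-K1 line with C-terminally ProLink-tagged CXCR7 and β-arrestin 2–EA fusion; β-arrestin recruitment restores β-gal activity, read by chemiluminescence after 1 h RT detection. Cells seeded 24 h, starved in OPTIMEM 3–4 h, exposed to compounds 90 min at 37 °C in HBSS/HEPES/BSA. Geometric-mean EC50 from repeated measurements.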

T1 sequence (P25106 whole entry): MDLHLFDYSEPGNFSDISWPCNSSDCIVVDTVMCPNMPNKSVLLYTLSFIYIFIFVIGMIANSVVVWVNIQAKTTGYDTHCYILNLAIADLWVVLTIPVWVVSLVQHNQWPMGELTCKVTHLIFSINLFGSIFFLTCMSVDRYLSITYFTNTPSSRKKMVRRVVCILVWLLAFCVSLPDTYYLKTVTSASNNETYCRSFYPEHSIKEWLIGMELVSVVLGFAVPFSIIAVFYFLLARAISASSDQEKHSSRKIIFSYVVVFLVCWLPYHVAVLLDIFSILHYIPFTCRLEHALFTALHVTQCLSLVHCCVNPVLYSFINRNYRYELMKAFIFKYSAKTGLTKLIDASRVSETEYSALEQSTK
T1 sequence (P32121 whole entry partner): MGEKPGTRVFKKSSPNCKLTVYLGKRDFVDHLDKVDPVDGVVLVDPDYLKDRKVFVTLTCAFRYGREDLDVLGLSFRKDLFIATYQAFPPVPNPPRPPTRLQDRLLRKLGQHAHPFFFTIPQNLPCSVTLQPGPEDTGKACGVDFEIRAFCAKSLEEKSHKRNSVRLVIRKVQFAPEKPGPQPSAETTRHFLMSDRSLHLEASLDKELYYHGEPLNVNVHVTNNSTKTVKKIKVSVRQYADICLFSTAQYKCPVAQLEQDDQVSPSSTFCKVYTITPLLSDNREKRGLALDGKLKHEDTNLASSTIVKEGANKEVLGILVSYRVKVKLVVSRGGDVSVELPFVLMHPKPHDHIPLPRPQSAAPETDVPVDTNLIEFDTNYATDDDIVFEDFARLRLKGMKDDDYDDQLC

| EC50 | Structure (SMILES) |
| --- | --- |
| 42 nM | CCN1CCc2cccc(NCC(=O)N(CCN(C)C)Cc3ncccc3F)c2C1 [compound 528, N-(2-Dimethylamino-ethyl)-2-(2-ethyl-1,2,3,4-tetrahydro-isoquinolin-8-ylamino)-N-(3-fluoro-pyridin-2-ylmethyl)-acetamide] |
| 5 nM | Cc1ccc2c(c1NCC(=O)N(CCN(C)C)Cc1ccccc1C(F)(F)F)CCN(CC1CC1)C2 [Example 290, 2-(2-Cyclopropylmethyl-6-methyl-1,2,3,4-tetrahydro-isoquinolin-5-ylamino)-N-(2-dimethylamino-ethyl)-N-(2-trifluoromethyl-benzyl)-acetamide] |
| 395 nM | CN(C)CCN(Cc1ccccc1)C(=O)CNc1cccc2c1CCN(C(=O)OCC(C)(C)C)C2 [compound 127] |
| 83 nM | CNCCN(Cc1ccccc1C(F)(F)F)C(=O)CNc1cccc2c1CCN(C(=O)C(C)(C)C)C2 [compound 390] |
| 63 nM | CCC(=O)N1CCc2c(cccc2NCC(=O)N(CCN(C)C)Cc2ccc(C)cc2)C1 [Example 16, N-(2-Dimethylamino-ethyl)-N-(4-methyl-benzyl)-2-(2-propionyl-1,2,3,4-tetrahydro-isoquinolin-5-ylamino)-acetamide] |
| 28 nM | CCC(=O)N1CCc2c(cccc2NCC(=O)N(CCN2CCCC2)Cc2ccccc2)C1 [Example 24, N-Benzyl-2-(2-propionyl-1,2,3,4-tetrahydro-isoquinolin-5-ylamino)-N-(2-pyrrolidin-1-yl-ethyl)-acetamide] |
| 8 nM | CCCN1CCc2cccc(NCC(=O)N(CCN(C)C)Cc3ccccc3C(F)(F)F)c2C1 [compound 556, N-(2-Dimethylamino-ethyl)-2-(2-propyl-1,2,3,4-tetrahydro-isoquinolin-8-ylamino)-N-(2-trifluoromethyl-benzyl)-acetamide] |
| 321 nM | CCN1CCc2cccc(NCC(=O)N(Cc3ccccc3)C3CCNC3)c2C1 (racemic) [compound 378] |
| 23 nM | CN(C)CCN(Cc1ccccc1C(F)(F)F)C(=O)CNc1ccc(F)c2c1CCN(CC1CC1)C2 [Example 288, 2-(2-Cyclopropylmethyl-8-fluoro-1,2,3,4-tetrahydro-isoquinolin-5-ylamino)-N-(2-dimethylamino-ethyl)-N-(2-trifluoromethyl-benzyl)-acetamide] |
| 87 nM | CC(C)CC(=O)N1CCc2c(cccc2NCC(=O)N(CCN(C)C)Cc2ccccc2)C1 [compound 119] |
| 79 nM | O=C(CNc1cccc2c1CN(CC1CC1)CC2)N(CCN1CC(F)(F)C1)Cc1ccccc1C(F)(F)F [compound 484] |
| 5 nM | CN(C)CCN(Cc1ccccc1C(F)(F)F)C(=O)CNc1cccc2c1CCN(c1ccccn1)C2 [Example 374, N-(2-Dimethylamino-ethyl)-2-(2-pyridin-2-yl-1,2,3,4-tetrahydro-isoquinolin-5-ylamino)-N-(2-trifluoromethyl-benzyl)-acetamide] |
| 16 nM | O=C(/C=C/c1cccc2c1CCN(CC1CC1)C2)N(Cc1ccccc1)C1CCS(=O)(=O)C1 (centres unmarked) [compound 147] |
| 452 nM | CCOC(=O)CN(Cc1ccccc1)C(=O)/C=C/c1cccc2c1CCN(C(=O)OC(C)(C)C)C2 [Example 94, 5-[(E)-2-(Benzyl-ethoxycarbonylmethyl-carbamoyl)-vinyl]-3,4-dihydro-1H-isoquinoline-2-carboxylic acid tert-butyl ester] |
| 7 nM | COCCN1CCc2c(/C=C/C(=O)N(CCN(C)C)Cc3ncccc3C(F)(F)F)cccc2C1 [Example 318, (E)-N-(2-Dimethylamino-ethyl)-3-[2-(2-methoxy-ethyl)-1,2,3,4-tetrahydro-isoquinolin-5-yl]-N-(3-trifluoromethyl-pyridin-2-ylmethyl)-acrylamide] |
| 26 nM | CN(C)CCN(Cc1ccccc1C(F)(F)F)C(=O)CNc1cccc2c1CCN(CC1(C)COC1)C2 [Example 358, N-(2-Dimethylamino-ethyl)-2-[2-(3-methyl-oxetan-3-ylmethyl)-1,2,3,4-tetrahydro-isoquinolin-5-ylamino]-N-(2-trifluoromethyl-benzyl)-acetamide] |
| 36 nM | CCCC(=O)N1CCc2c(cccc2NCC(=O)N(CCN(C)C)Cc2ccccc2)C1 [compound 114, N-Benzyl-2-(2-butyryl-1,2,3,4-tetrahydro-isoquinolin-5-ylamino)-N-(2-dimethylamino-ethyl)-acetamide] |
| 3 nM | O=C(CNc1cccc2c1CCN(CC1CC1)C2)N(CCN1CCCC1)Cc1ccc(F)cc1F [Example 51, 2-(2-Cyclopropylmethyl-1,2,3,4-tetrahydro-isoquinolin-5-ylamino)-N-(2,4-difluoro-benzyl)-N-(2-pyrrolidin-1-yl-ethyl)-acetamide] |

| EC50 | Structure (SMILES) |
| --- | --- |
| 3 nM | CCCN1CCc2c(cccc2NCC(=O)N(CCN(C)C)Cc2ccccc2C(F)(F)F)C1 [Example 573, N-(2-Dimethylamino-ethyl)-2-(2-propyl-1,2,3,4-tetrahydro-isoquinolin-5-ylamino)-N-(2-trifluoromethyl-benzyl)-acetamide] |
| 4 nM | CN(C)CCCN(Cc1ccccc1)C(=O)CNc1cccc2c1CCN(CC1CC1)C2 [Example 37, N-Benzyl-2-(2-cyclopropylmethyl-1,2,3,4-tetrahydro-isoquinolin-5-ylamino)-N-(3-dimethylamino-propyl)-acetamide] |
| 48 nM | CN(C)CCN(Cc1ccccc1)C(=O)CNc1cccc2c1CN(Cc1ccccc1)CC2 [compound 193, N-Benzyl-2-(2-benzyl-1,2,3,4-tetrahydro-isoquinolin-8-ylamino)-N-(2-dimethylamino-ethyl)-acetamide] |
| 49 nM | CNCCN(Cc1ccccc1C(F)(F)F)C(=O)CNc1cccc2c1CCN(C(=O)CC(C)C)C2 [compound 391, N-(2-Methylamino-ethyl)-2-[2-(3-methyl-butyryl)-1,2,3,4-tetrahydro-isoquinolin-5-ylamino]-N-(2-trifluoromethyl-benzyl)-acetamide] |
| 5 nM | C/C(=C\c1ccccc1)CN(CCC1CCCN1C)C(=O)CNc1cccc2c1CCN(CC1CC1)C2 (racemic) [Example 61, rac-2-(2-Cyclopropylmethyl-1,2,3,4-tetrahydro-isoquinolin-5-ylamino)-N-((E)-2-methyl-3-phenyl-allyl)-N-[2-(1-methyl-pyrrolidin-2-yl)-ethyl]-acetamide] |
| 21 nM | CCN1CCc2cccc(NCC(=O)N(CCN(C)C)Cc3ccccc3F)c2C1 [compound 491, N-(2-Dimethylamino-ethyl)-2-(2-ethyl-1,2,3,4-tetrahydro-isoquinolin-8-ylamino)-N-(2-fluoro-benzyl)-acetamide] |
| 79 nM | CCOC(=O)N1CCc2c(cccc2NCC(=O)N(CCN(C)C)Cc2ccccc2)C1 [compound 117] |
| 44 nM | Cc1ccccc1CCN(CCN(C)C)C(=O)CNc1cccc2c1CCN(CC1CC1)C2 [Example 40, 2-(2-Cyclopropylmethyl-1,2,3,4-tetrahydro-isoquinolin-5-ylamino)-N-(2-dimethylamino-ethyl)-N-(2-o-tolyl-ethyl)-acetamide] |
| 17 nM | CN1CCCC1CCN(CCCc1ccccc1)C(=O)CNc1cccc2c1CCN(CC1CC1)C2 (racemic) [Example 52, rac-2-(2-Cyclopropylmethyl-1,2,3,4-tetrahydro-isoquinolin-5-ylamino)-N-[2-(1-methyl-pyrrolidin-2-yl)-ethyl]-N-(3-phenyl-propyl)-acetamide] |
| 1 nM | CN1CCCC(N(Cc2ccccc2C(F)(F)F)C(=O)CNc2cccc3c2CCN(CC2CC2)C3)C1 (racemic) [compound 136] |
| 181 nM | CCN1CCc2cccc(NCC(=O)N(CCC#N)Cc3ccccc3C(F)(F)F)c2C1 [compound 516] |
| 20 nM | COCCN1CCc2c(/C=C/C(=O)N(CCN(C)C)Cc3ncccc3Cl)cccc2C1 [Example 327, (E)-N-(3-Chloro-pyridin-2-ylmethyl)-N-(2-dimethylamino-ethyl)-3-[2-(2-methoxy-ethyl)-1,2,3,4-tetrahydro-isoquinolin-5-yl]-acrylamide] |
| 337 nM | CN1CCC(N(Cc2ccccc2C(F)(F)F)C(=O)CNc2cccc3c2CCN(C(=O)OC(C)(C)C)C3)CC1 [Example 10, 5-({[(1-Methyl-piperidin-4-yl)-(2-trifluoromethyl-benzyl)-carbamoyl]-methyl}-amino)-3,4-dihydro-1H-isoquinoline-2-carboxylic acid tert-butyl ester] |
| 1 nM | CC1c2cccc(NCC(=O)N(CCN(C)C)Cc3ccccc3C(F)(F)F)c2CCN1CC1CC1 (single isomer, unassigned) [Example 211a, (S)- or (R)-2-((2-(Cyclopropylmethyl)-1-methyl-1,2,3,4-tetrahydroisoquinolin-5-yl)amino)-N-(2-(dimethylamino)ethyl)-N-(2-(trifluoromethyl)benzyl)acetamide] |
| 208 nM | COCCN1CCc2c(cccc2NCC(=O)N(Cc2ccccc2C(F)(F)F)CC(C)(C)O)C1 [Example 301, N-(2-Hydroxy-2-methyl-propyl)-2-[2-(2-methoxy-ethyl)-1,2,3,4-tetrahydro-isoquinolin-5-ylamino]-N-(2-trifluoromethyl-benzyl)-acetamide] |
| 120 nM | CNCCN(Cc1ncccc1C(F)(F)F)C(=O)CNc1cccc2c1CCN(C(=O)OCC(C)(C)C)C2 [compound 428] |
| 51 nM | CNCCN(Cc1ccccc1C(F)(F)F)C(=O)CNc1cccc2c1CC(=O)N(CC(C)C)C2 [compound 383] |
| 64 nM | CNCCN(Cc1ccccc1C(F)(F)F)C(=O)CNc1cccc2c1CCN(C(=O)OC(C)C)C2 [compound 399] |

| Structure (SMILES) | EC50 |
| --- | --- |
| CN(C)CCN(CCc1ccccc1)C(=O)Cc1cccc2c1CCN(CC1CC1)C2 [Example 2, 2-(2-Cyclopropylmethyl-1,2,3,4-tetrahydro-isoquinolin-5-yl)-N-(2-dimethylamino-ethyl)-N-phenethyl-acetamide] | 144 nM |
| CN(C)CCN(Cc1ccccc1)C(=O)COc1cccc2c1CCN(CC1CC1)C2 [compound 166, N-Benzyl-2-(2-cyclopropylmethyl-1,2,3,4-tetrahydro-isoquinolin-5-yloxy)-N-(2-dimethylamino-ethyl)-acetamide] | 6 nM |
